ChEMBL document CHEMBL1201862, “PubChem BioAssay data set” (2004)
Activity calls are given as the source filed them. For most assays here, no stated cut-off is given here; in the data, actives have a measured EC50 and inactives only a lower limit.

Assays:
[1] = molecular target: T1, Heat shock factor protein 1 (Mus musculus, UniProt P38532); assay: inhibition of MG132-induced HSE-luciferase signal, confirmation, cell-based, NIH3T3, luminescence, dose retest (AID 2382); assay type: functional;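 further: NIH3T3 fibroblasts with HSF1-driven luciferase reporter stressed by proteasome inhibitor MG132; luminescence from HSF1-driven luciferase expression after 8 hours of MG132 stress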
T1 sequence (P38532 whole entry): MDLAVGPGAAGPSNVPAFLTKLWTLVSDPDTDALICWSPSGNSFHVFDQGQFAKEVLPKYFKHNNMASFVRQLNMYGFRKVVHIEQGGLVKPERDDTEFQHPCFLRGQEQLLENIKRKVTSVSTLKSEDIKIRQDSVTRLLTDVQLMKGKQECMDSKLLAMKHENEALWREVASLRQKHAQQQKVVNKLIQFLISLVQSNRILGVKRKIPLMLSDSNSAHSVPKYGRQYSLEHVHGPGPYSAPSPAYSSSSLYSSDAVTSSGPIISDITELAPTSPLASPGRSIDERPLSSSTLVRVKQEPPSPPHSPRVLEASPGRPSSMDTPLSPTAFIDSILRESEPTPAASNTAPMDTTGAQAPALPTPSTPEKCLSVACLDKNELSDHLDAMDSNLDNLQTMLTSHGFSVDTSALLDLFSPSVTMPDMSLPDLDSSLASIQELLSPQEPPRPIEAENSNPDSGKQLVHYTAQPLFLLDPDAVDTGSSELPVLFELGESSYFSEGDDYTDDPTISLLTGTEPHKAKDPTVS

[2] = molecular target: T1, Heat shock factor protein 1; assay: HSF1 potentiators in luciferase reporter cells, confirmation, cell-based, NIH3T3, luminescence, dose retest (AID 435004); assay type: functional;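 further: stress induced by proteasome inhibitor MG132 added 30 min after compound; luciferase reporter driven by HSF1 response element in NIH3T3 cells; actives raise luminescence as potentiators of the MG132 stress response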
Streptococcus = assay: Group A Streptococcus viability loss, dose response, counter-screen for streptokinase expression inhibitor project, luminescence, BacTiterGlo (AID 1915); assay type: functional, organism-based;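 further: potency for reduction of bacterial viability or growth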
[3] = test system: Streptococcus sp. 'group A'; assay: growth inhibition of control SK(-) GAS strain, dose response, counter-screen for streptokinase expression inhibitor project, luminescence, kanamycin, BacTiterGlo, confirmation (AID 1900); assay type: functional, organism-based
[4] = cytotoxicity toward NIH3T3 fibroblasts, dose response, counter-screen, cell-based, ATP luminescence, mouse fibroblasts (AID 2010); assay type: functional;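 further: cells exposed to compound for about 90 hours before reading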
[5] = inhibitors of intracellular T. cruzi replication, confirmation, NIH3T3 host cells, beta-gal luminescence (AID 2044); assay type: functional, cell-based;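 further: intracellular parasites grown in NIH/3T3 mouse fibroblasts as host cells; luminescent beta-galactosidase reporter signal from transgenic T. cruzi replicating inside host cells; inhibitors lower the luminescence signal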
Cytochrome P450 2D6 = Cytochrome P450 2D6 (Homo sapiens, UniProt P10635);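 further: CYP2D6 member of a cytochrome P450 panel assay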
[6] = molecular target: T2, Corticotropin-releasing factor receptor 2/Corticotropin-releasing factor-binding protein (Homo sapiens, UniProt P24387+Q13324); assay: activators of CRF receptor 2 with binding protein – uHTS hits, confirmation (AID 602473); assay type: functional; details: read-out: EC50_Mean
T2 sequence (Q13324 whole entry): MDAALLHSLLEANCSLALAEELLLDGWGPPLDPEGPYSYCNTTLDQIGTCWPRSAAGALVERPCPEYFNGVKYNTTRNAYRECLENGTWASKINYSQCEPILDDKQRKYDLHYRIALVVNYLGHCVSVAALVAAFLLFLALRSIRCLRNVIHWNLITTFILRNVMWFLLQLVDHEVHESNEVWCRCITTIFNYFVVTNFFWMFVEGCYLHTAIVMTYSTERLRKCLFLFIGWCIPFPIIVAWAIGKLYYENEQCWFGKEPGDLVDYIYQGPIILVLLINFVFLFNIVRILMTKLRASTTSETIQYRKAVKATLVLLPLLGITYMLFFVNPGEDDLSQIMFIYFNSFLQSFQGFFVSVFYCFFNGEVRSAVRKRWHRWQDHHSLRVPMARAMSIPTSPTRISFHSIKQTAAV
T2 sequence (P24387 whole entry): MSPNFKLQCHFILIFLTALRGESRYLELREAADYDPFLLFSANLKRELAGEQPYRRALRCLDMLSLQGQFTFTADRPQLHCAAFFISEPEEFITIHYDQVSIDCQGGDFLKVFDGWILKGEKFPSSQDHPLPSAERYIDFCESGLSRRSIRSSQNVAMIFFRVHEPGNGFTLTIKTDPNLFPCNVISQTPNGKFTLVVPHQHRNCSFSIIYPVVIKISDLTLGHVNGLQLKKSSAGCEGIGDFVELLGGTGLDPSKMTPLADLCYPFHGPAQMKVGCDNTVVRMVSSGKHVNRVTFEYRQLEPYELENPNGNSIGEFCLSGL

Sequence of Cytochrome P450 2D6 (P10635 whole entry): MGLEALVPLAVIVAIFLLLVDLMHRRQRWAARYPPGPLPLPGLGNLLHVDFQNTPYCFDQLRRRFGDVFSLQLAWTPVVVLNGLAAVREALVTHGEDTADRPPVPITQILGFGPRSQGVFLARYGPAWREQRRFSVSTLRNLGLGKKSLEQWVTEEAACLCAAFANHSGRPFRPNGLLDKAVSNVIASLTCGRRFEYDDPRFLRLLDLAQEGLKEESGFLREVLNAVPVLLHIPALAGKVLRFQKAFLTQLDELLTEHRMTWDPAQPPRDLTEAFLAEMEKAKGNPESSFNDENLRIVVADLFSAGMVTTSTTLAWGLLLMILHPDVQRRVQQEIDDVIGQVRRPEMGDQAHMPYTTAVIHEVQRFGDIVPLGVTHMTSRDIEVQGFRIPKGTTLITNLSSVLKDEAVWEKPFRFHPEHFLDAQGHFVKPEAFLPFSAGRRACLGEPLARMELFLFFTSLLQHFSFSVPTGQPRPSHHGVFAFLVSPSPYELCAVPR

Cc1ccc(-n2nc(C)c3cc(C(=O)O)sc32)cc1
EC50 [1]: > 195 µM (not active)

Cc1ccnc(NC(=O)c2cc3cc(F)ccc3s2)c1
EC50 [2]: > 260 µM (inactive)

COCc1cc(CN2CCN(CCc3ccccc3)C(CCO)C2)ccc1OC (configuration not stated)
EC50 [2]: > 260 µM (inactive)

COc1cc(OC)cc(C(=O)Nc2nc(-c3ccccc3)c(-c3ccccc3)o2)c1
EC50 (Streptococcus): 1.34 µM (active) | EC50 [3]: 0.617 µM (active)

COc1ccc(/C=C(\C#N)C(=O)Nc2cccc(C)n2)cc1
EC50 [2]: 165 µM (active)

COc1ccccc1C(=O)C1CCCN(Cc2c[nH]nc2C2CCCCC2)C1 (configuration not stated)
EC50 [4]: > 60 µM (not active) | EC50 [5]: 0.604 µM (active)

Cc1ccc(-n2nc3c(=O)n(CCCC(=O)N4CCC(C(N)=O)CC4)nc(C)c3c2C)cc1
EC50 [1]: > 195 µM (not active)

O=C(c1ccc(-n2cncn2)c([N+](=O)[O-])c1)N1CCN(S(=O)(=O)c2ccccc2F)CC1
EC50 [1]: > 195 µM (not active)

CCCC(=O)NCCc1c2n(c3ccc(OC)cc13)Cc1ccccc1-2
AC50 (Cytochrome P450 2D6): 39.8 µM (inconclusive)

Cc1nc2c(cc1C(=O)N/N=C/c1ccc(O)c(O)c1)c(=O)n(C)c(=O)n2C
EC50 [1]: > 195 µM (not active)

c1cn(-c2ncnc3ccc(-c4ccoc4)cc23)cn1
AC50 (Cytochrome P450 2D6): 39.8 µM (inconclusive)

CCn1c2ccccc2c2cc(NS(=O)(=O)c3ccccc3C)ccc21
AC50 (Cytochrome P450 2D6): 8.91 µM (inconclusive)

CCN(C(=O)c1cc2c(O)nc3ccc(C)cc3c2s1)c1ccccc1F
EC50 [2]: > 260 µM (inactive)

O=C(NCC1CCCN(Cc2ccc3nonc3c2)C1)c1cccc(C(F)(F)F)c1 (configuration not stated)
EC50 [4]: > 60 µM (not active) | EC50 [5]: 0.771 µM (active)

Cc1ccc(C(=O)NCCc2nc3ccccc3[nH]2)cc1[N+](=O)[O-]
EC50 [4]: > 60 µM (inconclusive) | EC50 [5]: 1.03 µM (active)

COc1ccc(C(=O)C2=C(O)C(=O)N(CCN(C)C)C2c2cccnc2)cc1C (configuration not stated)
EC50 [6]: > 53 µM (inactive)

O=C(Nc1cccc(S(=O)(=O)N2CCOCC2)c1)c1cn(-c2ccccc2)nc1-c1ccc(F)cc1
EC50 [4]: > 60 µM (inconclusive) | EC50 [5]: 2.49 µM (active)

Cc1ccc(C(NC(=O)/C=C\c2ccc3c(c2)OCO3)C(=O)Nc2ccc3c(c2)OCO3)cc1 (configuration not stated)
EC50 [2]: > 260 µM (inactive)

O=S(=O)(NC1CCCCC1N1CCN(c2ccc(F)cc2)CC1)c1ccc(Cl)cc1 (configuration not stated)
EC50 [6]: 3.94 µM (active)

O=C(NCc1ccccn1)c1cc(-c2ccc(-c3ccccc3)cc2)nc2ccccc12
EC50 [2]: 0.461 µM (active)

Cc1c(Cl)cccc1NC(=O)Nc1cnccn1
EC50 [1]: > 195 µM (not active)

CCN(CC)c1ccc(/C=C2/C(=O)N(c3ccc([N+](=O)[O-])cc3)N=C2N2CCOCC2)cc1
EC50 [2]: > 260 µM (inactive)

COCCN(Cc1c[nH]nc1-c1ccc2cc(OC)ccc2c1)C(C)C
EC50 [4]: > 60 µM (not active) | EC50 [5]: 1.56 µM (active)

CCCCOc1ccc(CSC2=NCCN2)cc1[N+](=O)[O-]
EC50 [4]: > 30 µM (not active) | EC50 [5]: 0.46 µM (active)

COc1ccc(CNc2ncnc3ccc(-c4cccc(NS(C)(=O)=O)c4)cc23)c(OC)c1
AC50 (Cytochrome P450 2D6): 10 µM (inconclusive)

CS/C(=N\C#N)N1CCN(c2ccc(Cl)cc2)CC1
EC50 [2]: 129 µM (active)

COc1ccc(-c2nc(C#N)c(NCc3cccnc3)o2)cc1OC
EC50 [4]: > 60 µM (not active) | EC50 [5]: 1.8 µM (active)

Cn1c(N)c(C(=O)Nc2ccc(-c3ccccc3)cc2)sc1=S
EC50 [1]: > 195 µM (not active)

CCN=C(S)NNC(=O)c1cccn(Cc2ccc(Cl)cc2Cl)c1=O
EC50 [6]: 7.26 µM (active)

O=C(N/N=C/c1ccc(-c2ccc(Br)cc2)o1)c1ccc2c(c1)OCO2
EC50 [4]: > 60 µM (inconclusive) | EC50 [5]: 1.47 µM (active)

CCc1cccc(NC(=O)C2CCCN(S(=O)(=O)c3cccs3)C2)c1 (configuration not stated)
EC50 [1]: > 195 µM (not active)

O=C1CC(c2ccc(Cl)cc2)n2nc(NS(=O)(=O)c3ccc(F)cc3)nc2N1 (configuration not stated)
EC50 [2]: > 260 µM (inactive)

CCOc1ccc(NS(=O)(=O)c2ccc(C(=O)NCC(c3ccco3)N3CCCC3)cc2)cc1 (configuration not stated)
EC50 [6]: 6.17 µM (active)

COC(=O)CNC(c1ccccc1)c1cc(Br)ccc1NC(=O)CCN1CCOCC1 (configuration not stated)
EC50 [4]: > 60 µM (not active) | EC50 [5]: 6.7 µM (active)

CCn1c(N)nc2ccccc21
AC50 (Cytochrome P450 2D6): 17.8 µM (inconclusive)

CCOC(=O)c1c(NC(C)=O)sc2c(OCCN(CC)CC)c(Br)ccc12
EC50 [4]: > 60 µM (not active) | EC50 [5]: 1.58 µM (active)

CCOc1ccc(/C=C2\SC(=O)N(CCNC(=O)C3COc4ccccc4O3)C2=O)cc1OC (configuration not stated)
EC50 [1]: > 195 µM (not active)

O=C(Cc1ccccc1)Oc1ccccc1N1C(=O)CCC1=O
EC50 [1]: > 195 µM (not active)

O=C(COC(=O)COc1cccc(Br)c1)Nc1c(Cl)cccc1Cl
EC50 [2]: > 260 µM (inactive)

O=[N+]([O-])c1cc(Br)c(OCc2nnc(-c3ccccc3)o2)c(Br)c1
EC50 [4]: > 60 µM (not active) | EC50 [5]: 1.75 µM (active)

Cc1cc(Cn2ccnc2)c(C)cc1Cn1ccnc1
EC50 [4]: > 60 µM (not active) | EC50 [5]: 2.45 µM (active)

Cc1ccc(C(=O)Cn2nnc(-c3ccccc3-n3cnnn3)n2)cc1
EC50 [2]: > 260 µM (inactive)

CCOC(=O)NNc1nncc2ccccc12 [TODRALAZINE]
AC50 (Cytochrome P450 2D6): 12.6 µM (inconclusive)

C=CCC(C(=O)OC)(C(=O)OC)c1ccc([N+](=O)[O-])cc1[N+](=O)[O-]
EC50 [4]: > 60 µM (not active) | EC50 [5]: 2.42 µM (active)

CC(/C=N\NC(=O)c1cc(C)oc1C)=C\c1ccccc1
EC50 [1]: > 195 µM (not active)

CCOc1cc(CNCC2CCCN2CC)cc(Cl)c1OC (configuration not stated)
EC50 [1]: 63.1 µM (active)

Cc1ccc(OCC(=O)c2cc(C)n(-c3ccccc3)c2C)c([N+](=O)[O-])n1
EC50 [1]: 0.623 µM (active)

CN(C)S(=O)(=O)N1CCN(C(=O)N2CCCCC2)CC1
EC50 [1]: > 195 µM (not active)

Cc1cccc(C(=O)NNC(=O)CCn2nnc3ccccc32)c1
EC50 [2]: > 260 µM (inactive)

CCC12CN3CC(CC)(CN(C1)C3c1ccc([N+](=O)[O-])o1)C2=O (configuration not stated)
EC50 [4]: > 30 µM (not active) | EC50 [5]: 0.85 µM (active)

CN(C)C(CNC(=O)CCC(=O)c1ccc(Br)cc1)c1ccccc1 (configuration not stated)
EC50 [2]: > 260 µM (inactive)

O=C(NCCc1nc2ccccc2[nH]1)/C(=C/c1ccc(F)cc1)NC(=O)c1ccco1
EC50 [2]: > 260 µM (inactive)

C/C(CC(=O)Nc1cccc2c1CCCC2)=N\NC(=O)COc1ccccc1
EC50 [2]: > 260 µM (inactive)

COc1ccc(OC)c(Nc2nc3ccc(C)cc3n3cnnc23)c1
EC50 [2]: > 260 µM (inactive)

C/C(=N\NC(=O)C(N)=O)c1ccc(O)cc1O
EC50 [1]: > 195 µM (not active)

O=[N+]([O-])c1ccc(Nc2ccc(F)cc2)cc1
EC50 [1]: > 195 µM (not active)

CCOC(=O)N1CCN(c2nc(-c3ccco3)cc(C(F)(F)F)n2)CC1
AC50 (Cytochrome P450 2D6): 14.1 µM (inconclusive)
